# Source: patent publication US20170209544A1, “A PEPTIDE THERAPY TO COUNTERACT INSULIN RESISTANCE AND TYPE 2 DIABETES” (The Regents of the University of California, priority 2014, published 2017)
# Where no end group is shown, it is not given here.
# Tests used:
# adipocytes = assay: Leptin production in adipocytes; format: cell-based
# Source text: Mutant PST peptides were synthesized and screened. The peptides were synthesized as various deletion peptides of PST. Native PST (SEQ ID NO. 2) inhibited insulin-stimulated glucose uptake and leptin production in adipocytes. The inventors tested various deletion mutant PST peptides whether one or more of them would compete and prevent native PST action in adipocytes.
# KO-DIO mice [1] = assay: GTT, ITT and fasting insulin in PST-treated KO-DIO mice; format: in vivo
# Procedure: For glucose tolerance tests (GTT), glucose (1 mg/g) was injected intraperitoneally (IP-GTT) (at time zero) or gavaged orally (O-GTT) after a 12-hours fast. Tail-vein glucose levels were measured at −30, 0, 15, 30, 60, 90, and 120 minutes. For insulin tolerance tests (ITT), insulin (0.4 mU/g) was injected intraperitoneally and blood glucose levels were measured at the indicated time points. Chronic PST (5 μg/g/day) and PSTv1 (10 μg/day) treatments were carried out for 15 days. For acute treatment, either peptides or saline were injected 30 minutes before glucose or insulin injection. Synergy Software Kaleidagraph Version 4.0 calculated the area under the curve (AUC) for each line curve.
# Despite increased obesity, KO-DIO mice maintained insulin sensitivity as shown by GTT and ITT. […] WT-DIO and KO-DIO male mice with mixed genetic background were fasted for 12 hrs and subjected to IP-GTT (2-way ANOVA: Strain, p<0.0001; Time, p<0.0001; Interaction, p<0.045; n=8, as shown in FIGS. 12A and 12B), oral GTT (2-way ANOVA: Strain, p<0.0001; Time, p<0.0001; Interaction, p=0.09; n=8, as shown in FIGS. 12C and 12D), or IP-ITT (2-way ANOVA: Treatment (WT), p<0.0001; Time, p<0.0001; Interaction, p=0.56; Treatment (KO), p<0.0001; Time, p<0.0001; Interaction, 0.43; n=9, as shown in FIGS. 12E and 12F), and AUC for glucose excursions were determined (see FIGS. 12B, 12D and 12F). […] and the corresponding AUC were shown in FIGS. 12E and 12F, respectively. Body weight-matched WT-DIO and KO-DIO mice were fasted for 12 hrs and subjected to clamp studies to determine glucose infusion rate (GIR, shown in FIG. 12G), glucose disposal rate (GDR, shown in FIG. 12H), (I) insulin-stimulated GDR (IS-GDR, shown in FIG. 12I) and % suppression of hepatic glucose production (HGP) (n=8-9, shown in FIG. 12J). Fasting (12 hrs) basal levels of plasma insulin before (FIG. 12K) and after (FIG. 12L) chronic PST treatment (5 μg/g BW/day, IP for 15 days) (n=6) were shown. “&” Indicates comparison between WT-DIO+Sal and KO-DIO+Sal, “$” indicates comparison between WT-DIO+Sal and WT-DIO+PST, “#” indicates comparison between KO-DIO+Sal and KO-DIO+PST, and “*” indicates comparison between the indicated groups. “*, $ or #”: P<0.05, “**, &&, ## or $$”: p<0.01, “***, ### or &&&”: p<0.001.
# Bip/GRP78 = Bip/GRP78 (Mus musculus, UniProt P20029); assay: Pull down assay using biotinylated PST; format: binding
# Chain of Bip/GRP78 (P20029 20-655): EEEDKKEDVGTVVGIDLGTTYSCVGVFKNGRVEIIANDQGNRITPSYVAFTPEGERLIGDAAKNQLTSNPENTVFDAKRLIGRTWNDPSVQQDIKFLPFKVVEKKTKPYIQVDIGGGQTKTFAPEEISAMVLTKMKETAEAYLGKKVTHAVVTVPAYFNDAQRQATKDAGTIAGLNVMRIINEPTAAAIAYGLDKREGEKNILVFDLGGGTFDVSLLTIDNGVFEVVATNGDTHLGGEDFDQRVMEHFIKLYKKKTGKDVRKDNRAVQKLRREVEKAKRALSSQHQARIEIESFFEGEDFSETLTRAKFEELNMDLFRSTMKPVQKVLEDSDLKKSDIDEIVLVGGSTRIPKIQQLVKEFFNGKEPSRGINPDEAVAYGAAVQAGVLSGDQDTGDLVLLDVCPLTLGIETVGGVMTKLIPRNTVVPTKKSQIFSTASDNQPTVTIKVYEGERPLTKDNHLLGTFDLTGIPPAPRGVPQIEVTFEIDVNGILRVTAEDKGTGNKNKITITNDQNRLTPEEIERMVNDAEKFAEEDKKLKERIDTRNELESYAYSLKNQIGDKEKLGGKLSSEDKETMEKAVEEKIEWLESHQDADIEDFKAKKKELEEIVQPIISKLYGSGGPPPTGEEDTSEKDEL
# Source text: PST interacts with ER chaperone, GRP78/BiP. […] Moreover, PST inhibits GRP78's ATPase enzymatic activity, and impairs its biosynthetic response to UPR activation. PST as an inhibitor of ATPase activity augments expression of gluconeogenic gene and G6Pase. GRP78 over-expression antagonizes this PST action.
# GRP78 = GRP78 (Homo sapiens, UniProt P11021); assay: GRP78 ATPase enzymatic activity; format: biochemical
# Chain of GRP78 (P11021 19-654, species assumed): as the sequence (P20029 20-655) above, with F295Y, G620A, S631A counted along it
# KO-DIO mice [2] = assay: Adipose tissue inflammatory genes and plasma cytokines in PST-treated KO-DIO mice; format: in vivo; details: PST 5 μg/g BW for 15 days
# Procedure: RNA from tissues was extracted using a kit (RNeasy Plus, Qiagen, Valencia, Calif.). After DNase digestion, 200 ng of RNA was transcribed into cDNA in a 20-μl reaction using a High Capacity cDNA Archive kit and this cDNA was amplified. PCR (25-μl reactions) contained 5 μl of cDNA, 2×SYBR Green PCR Master Mix, and 400 nM of each primer. Differences in the threshold cycle number (ΔCt) between the target gene, the housekeeping gene Gapdh and the ribosomal protein gene 36B4 were used to calculate differences in expression. Primer sequences are provided below.
# Plasma cytokine concentrations were determined by a multiplex system from Quansys Biosciences (Logan, Utah).
# As shown in FIGS. 17A-17H, PST modulates adipose tissue inflammation. A group of KO-DIO mice were injected with saline or PST (5 μg/g BW) for 15 days. Weight-matched saline-treated WT-DIO, KO-DIO and PST-treated KO-DIO mice were fasted for 12 hr and sacrificed. Blood was collected to measure plasma cytokine levels. Tissues were subjected to RNA extraction, cDNA preparation and RT-qPCR analysis for cytokines (FIG. 17A, n=6), pro-inflammatory genes (FIG. 17B: Cd11c & IL-12p40, n=6; FIG. 17C: iNos, n=6), and anti-inflammatory genes (FIG. 17D: Arg-1 & IL-10, n=6; FIG. 17E: Mgl-1, Mgl-2 and Ym1, n=6). “*” Denotes comparison between the indicated groups. “*”: P<0.05, “**”: p<0.01, “***”: p<0.001.
# [3] = chronic PST 5 μg/g BW/day IP for 15 days, over WT-DIO levels
substance,measurement,setting,value
"PEGKGEQEHSQQKEEEEEMAVVPQGLFRG-amide (PEGKGEQEHSQQKEEEEEMAVVPQGLFRG-NH2) [PST, Wild-type human pancreastatin, a chromogranin A derived peptide]",leptin production,adipocytes,inhibited
same,blood glucose,"KO-DIO mice [1]; PST for 5 days, Chga-KO mice on high fat diet",led to hyperglycemia
same,insulin sensitivity phenotype on HFD,KO-DIO mice [1]; chronic PST 5 μg/g BW for 15 days,abolished
same,fasting glucose,KO-DIO mice [1]; [3],raised
same,fasting plasma insulin levels,KO-DIO mice [1]; [3],raised
same,binding to ER chaperone Bip/GRP78,Bip/GRP78,binds
same,GRP78's ATPase enzymatic activity,GRP78,inhibits
same,plasma levels of IL-12p70 and Mcp-1,KO-DIO mice [2],raised
same,"plasma levels of Ifnγ, IL-6, Mip-1α, Kc and Tnfα",KO-DIO mice [2],had no effect
same,expression of Arg-1 and IL-10,KO-DIO mice [2]; adipose tissue,significantly reduced
same,expression of Mgl-1 or Mgl-2,KO-DIO mice [2]; adipose tissue,had no effect
same,expression of Ym-1,KO-DIO mice [2]; adipose tissue,trend toward downregulating
same,"expression of pro-inflammatory genes IL-1β, Tnfα, IL-6, Mcp-1 and iNos",KO-DIO mice [2]; adipose tissue,increased expression
